# From US9518018B2, “3-alkoxy, thioalkyl and amino-4-amino-6-(substituted)picolinates and their use as herbicides” (Dow AgroSciences LLC, priority 2011, dated 2016)
# Columns and labels:
# Assay in all cases: Post-Emergent Test I herbicidal activity
# Type in all cases: in vivo
# [1] = test system: ABUTH: velvetleaf (Abutilon theophrasti); settings: Abutilon theophrasti, post-emergence, 336 h, read-out: Visual Growth Reduction (%)-14 Days after Application ABUTH; for pest or weed control at 140 g/ha: Table 3, 140 g ai/ha; for pest or weed control at 70 g/ha: Table 3, 70 g ai/ha
# Method: (§1) Seeds or nutlets of the desired test plant species were planted in Sun Gro Metro-Mix® 360 planting mixture, which typically has a pH of 6.0 to 6.8 and an organic matter content of about 30 percent, in plastic pots with a surface area of 64 square centimeters. When required to ensure good germination and healthy plants, a fungicide treatment and/or other chemical or physical treatment was applied. The plants were grown for 7-21 d in a greenhouse with an approximate 15 h photoperiod which was maintained at about 23-29° C. during the day and 22-28° C. during the night. Nutrients and water were added on a regular basis and supplemental lighting was provided with overhead metal halide 1000-Watt lamps as necessary. The plants were employed for testing when they reached the first or second true leaf stage.
# (§2) A weighed amount, determined by the highest rate to be tested, of each test compound was placed in a 25 mL glass vial and was dissolved in 4 mL of a 97:3 v/v mixture of acetone and DMSO to obtain concentrated stock solutions. […] The concentrated stock solutions obtained were diluted with 20 mL of an aqueous mixture containing acetone, water, isopropyl alcohol, DMSO, Atplus 411F crop oil concentrate, and Triton® X-155 surfactant in a 48.5:39:10:1.5:1.0:0.02 v/v ratio to obtain spray solutions containing the highest application rates. Additional application rates were obtained by serial dilution of 12 mL of the high rate solution into a solution containing 2 mL of 97:3 v/v mixture of acetone and DMSO and 10 mL of an aqueous mixture containing acetone, water, isopropyl alcohol, DMSO, Atplus 411F crop oil concentrate, and Triton X-155 surfactant in a 48.5:39:10:1.5:1.0:0.02 v/v ratio to obtain ½×, ¼×, ⅛× and 1/16× rates of the high rate. Compound requirements are based upon a 12 mL application volume at a rate of 187 liters per hectare (L/ha). Formulated compounds were applied to the plant material with an overhead Mandel track sprayer equipped with 8002E nozzles calibrated to deliver 187 L/ha over an application area of 0.503 square meters at a spray height of 18 inches (43 cm) above the average plant canopy height. Control plants were sprayed in the same manner with the solvent blank.
# (§3) The treated plants and control plants were placed in a greenhouse as described above and watered by subirrigation to prevent wash-off of the test compounds. After 14 d, the condition of the test plants as compared with that of the untreated plants was determined visually and scored on a scale of 0 to 100 percent where 0 corresponds to no injury and 100 corresponds to complete kill.
# (§4) By applying the well-accepted probit analysis as described by J. Berkson in Journal of the […], 48, 565 (1953) and by D. Finney in “Probit Analysis” Cambridge University Press (1952), the above data can be used to calculate GR20, GR50 and GR80 values, which are defined as growth reduction factors that correspond to the effective dose of herbicide required to kill or control 20 percent, 50 percent or 80 percent, respectively, of a target plant.
# [2] = test system: CHEAL: lambsquarters (Chenopodium album); settings: Chenopodium album, post-emergence, 336 h, read-out: Visual Growth Reduction (%)-14 Days after Application CHEAL; for pest or weed control at 140 g/ha: Table 3, 140 g ai/ha; for pest or weed control at 70 g/ha: Table 3, 70 g ai/ha
# Method: as §1, §2, §3, §4
# [3] = test system: CYPES: yellow nutsedge (Cyperus esculentus); settings: post-emergence, 336 h, read-out: Visual Growth Reduction (%)-14 Days after Application CYPES; for pest or weed control at 140 g/ha: Table 3, 140 g ai/ha; for pest or weed control at 70 g/ha: Table 3, 70 g ai/ha
# Method: as §1, §2, §3, §4
# [4] = test system: ECHCG: barnyardgrass (Echinochloa crus-galli); settings: post-emergence, 336 h, read-out: Visual Growth Reduction (%)-14 Days after Application ECHCG; for pest or weed control at 140 g/ha: Table 3, 140 g ai/ha; for pest or weed control at 70 g/ha: Table 3, 70 g ai/ha
# Method: as §1, §2, §3, §4
# [5] = test system: EPHHL: wild poinsettia (Euphorbia heterophylla); settings: post-emergence, 336 h, read-out: Visual Growth Reduction (%)-14 Days after Application EPHHL; for pest or weed control at 140 g/ha: Table 3, 140 g ai/ha; for pest or weed control at 70 g/ha: Table 3, 70 g ai/ha
# Method: as §1, §2, §3, §4
# [6] = test system: ORYSA: rice (Oryza sativa); settings: post-emergence, 336 h, read-out: Visual Growth Reduction (%)-14 Days after Application ORYSA; for pest or weed control at 140 g/ha: Table 3, 140 g ai/ha; for pest or weed control at 70 g/ha: Table 3, 70 g ai/ha
# Method: as §1, §2, §3, §4
# [7] = test system: ZEAMX: corn (Zea mays); settings: Zea mays, post-emergence, 336 h, read-out: Visual Growth Reduction (%)-14 Days after Application ZEAMX; for pest or weed control at 140 g/ha: Table 3, 140 g ai/ha; for pest or weed control at 70 g/ha: Table 3, 70 g ai/ha
# Method: as §1, §2, §3, §4
Compound,pest or weed control at 140 g/ha [1],pest or weed control at 140 g/ha [2],pest or weed control at 140 g/ha [3],pest or weed control at 140 g/ha [4],pest or weed control at 140 g/ha [5],pest or weed control at 140 g/ha [6],pest or weed control at 140 g/ha [7],also measured
"COc1c(C(=O)O)nc(-c2ccc(C(F)(F)F)c(F)c2)c(F)c1N [Compound 11, 4-amino-5-fluoro-6-(3-fluoro-4-(trifluoromethyl)phenyl)-3-methoxypicolinic acid]",100%,100%,50%,100%,100%,12%,80%,–
COC(=O)c1nc(-c2ccc(Cl)cc2F)c(F)c(N)c1OC [Compound 69],–,–,–,–,–,–,–,pest or weed control at 70 g/ha [1]: 85%; pest or weed control at 70 g/ha [2]: 0%; pest or weed control at 70 g/ha [3]: 100%; pest or weed control at 70 g/ha [4]: 30%; pest or weed control at 70 g/ha [5]: 100%; pest or weed control at 70 g/ha [6]: 0%; pest or weed control at 70 g/ha [7]: 10%
COC(=O)c1nc(-c2ccc(Br)c(F)c2)c(F)c(N)c1OC [Compound 21],–,–,–,–,–,–,–,pest or weed control at 70 g/ha [1]: 85%; pest or weed control at 70 g/ha [2]: 100%; pest or weed control at 70 g/ha [3]: 70%; pest or weed control at 70 g/ha [4]: 50%; pest or weed control at 70 g/ha [5]: 100%; pest or weed control at 70 g/ha [6]: 0%; pest or weed control at 70 g/ha [7]: 50%
COC(=O)c1nc(C(F)F)cc(N)c1OC [Compound 92],40%,95%,0%,0%,70%,0%,0%,–
"C#Cc1ccc(-c2nc(C(=O)OC)c(OC)c(N)c2F)cc1 [Compound 30, methyl 4-amino-6-(4-ethynylphenyl)-5-fluoro-3-methoxypicolinate]",50%,100%,100%,0%,100%,0%,70%,–
"COC(=O)c1nc(C(C)F)cc(N)c1OC (centres unmarked) [Compound 83, methyl 4-amino-6-(1-fluoroethyl)-3-methoxypicolinate]",0%,0%,0%,0%,0%,0%,0%,–
COC(=O)c1nc(-c2ccc3c(c2F)OCO3)c(F)c(N)c1OC [Compound 42],60%,90%,10%,0%,100%,0%,75%,–
"C=Cc1nc(C(=O)O)c(OC)c(N)c1F [Compound 95, 4-amino-5-fluoro-3-methoxy-6-vinylpicolinic acid]",0%,60%,0%,0%,30%,0%,0%,–
"COC(=O)c1nc(Cl)c(F)c(N)c1OC [Compound 10, methyl 4-amino-6-chloro-5-fluoro-3-methoxypicolinate]",–,–,–,–,–,–,–,"pest or weed control at 280 g/ha ([1]; Table 3, 280 g ai/ha): 100%; pest or weed control at 280 g/ha ([2]; Table 3, 280 g ai/ha): 100%; pest or weed control at 280 g/ha ([3]; Table 3, 280 g ai/ha): 0%; pest or weed control at 280 g/ha ([4]; Table 3, 280 g ai/ha): 0%; pest or weed control at 280 g/ha ([5]; Table 3, 280 g ai/ha): 100%; pest or weed control at 280 g/ha ([6]; Table 3, 280 g ai/ha): 0%; pest or weed control at 280 g/ha ([7]; Table 3, 280 g ai/ha): 25%"
COc1c(C(=O)O)nc(-c2ccc(Br)cc2F)c(F)c1N [Compound 61],80%,100%,100%,95%,100%,10%,75%,–
COC(=O)c1nc(-c2ccc(I)c(F)c2F)c(F)c(N)c1OC [Compound 24],60%,65%,100%,50%,100%,0%,75%,–
